Measurements taken from US4920103A, “Modifications of mycinose and 3-O-demethylmycinose in tylosin-type macrolides” (Eli Lilly and Company, priority 1986, dated 1990).
Values after ≈ are worked out from the molar mass of the structure shown. Read-outs that look alike come from different tables or passages of the source.

Key:
[1] = system: Pseudomonas aeruginosa X239; test: MIC, standard agar-dilution assay, P. aeruginosa X239; assay type: cell-based; details: agar-dilution, read-out: MIC
Description: (§1) The MIC's in Table II were determined by standard agar-dilution assays. The MIC's in Table III were obtained using conventional broth-dilution microtiter tests.

[2] = system: Staphylococcus aureus X400; test: MIC, standard agar-dilution assay, S. aureus X400; assay type: cell-based
Description: as §1

[3] = system: Streptococcus Group D X66; test: MIC, standard agar-dilution assay, Streptococcus Group D X66; assay type: cell-based
Description: as §1

[4] = system: Haemophilus influenzae C.L.; test: MIC, standard agar-dilution assay, H. influenzae C.L.; assay type: cell-based
Description: as §1

[5] = system: Staphylococcus epidermidis 222; test: MIC, standard agar-dilution assay, S. epidermidis 222; assay type: cell-based
Description: as §1

[6] = system: Haemophilus influenzae 76; test: MIC, standard agar-dilution assay, H. influenzae 76; assay type: cell-based
Description: as §1

[7] = system: Staphylococcus aureus V41; test: MIC, standard agar-dilution assay, S. aureus V41; assay type: cell-based; details: Staphylococcus aureus, V41
Description: as §1

[8] = system: Staphylococcus aureus X1.1; test: MIC, standard agar-dilution assay, S. aureus X1.1; assay type: cell-based
Description: as §1

[9] = system: Staphylococcus epidermidis EPI1; test: MIC, standard agar-dilution assay, S. epidermidis EPI1; assay type: cell-based
Description: as §1

Escherichia coli EC14 = test: MIC, standard agar-dilution assay, E. coli EC14; assay type: cell-based; details: agar-dilution, read-out: MIC
Description: as §1

[10] = system: Streptococcus Group D 2041; test: MIC, standard agar-dilution assay, Streptococcus Group D 2041; assay type: cell-based; details: GROUPD2041
Description: as §1

[11] = system: Streptococcus pneumoniae Park I; test: MIC, standard agar-dilution assay, S. pneumoniae Park I; assay type: cell-based; details: Streptococcus pneumoniae
Description: as §1

[12] = system: Staphylococcus aureus S13E; test: MIC, standard agar-dilution assay, S. aureus S13E; assay type: cell-based
Description: as §1

[13] = system: Streptococcus pyogenes C203; test: MIC, standard agar-dilution assay, S. pyogenes C203; assay type: cell-based; details: Streptococcus pyogenes, C203
Description: as §1

[14] = system: Klebsiella pneumoniae X68; test: MIC, standard agar-dilution assay, K. pneumoniae X68; assay type: cell-based; details: agar-dilution, read-out: MIC
Description: as §1

[15] = system: Streptococcus pyogenes C203; test: Protection of mice experimentally infected with Streptococcus pyogenes C203; assay type: in vivo; details: Streptococcus pyogenes, doses given 1 and 4 hours postinfection, read-out: ED50
Description: The formula 1 compounds have shown in vivo antimicrobial activity against experimentally-induced infections in laboratory animals. When two doses of test compound were administered to mice experimentally infected with Streptococcus pyogenes C203, the activity observed was measured as an ED50 value [effective dose in mg/kg to protect 50% of the test animals: see Warren Wick, et al., J. Bacteriol. 81, 233-235 (1961)].
^a mg/kg × 2; doses given 1 and 4 hours postinfection

[16] = agar-dilution, ampicillin-sensitive strain, read-out: MIC
[17] = agar-dilution, ampicillin-resistant strain, read-out: MIC

Structure (SMILES)	MIC [1]	MIC [2]	MIC [3]	MIC [5]	MIC [7]	MIC [8]	MIC [9]	MIC (Escherichia coli EC14)	MIC [10]	MIC [11]	MIC [12]	MIC [13]	MIC [14]	ED50 ([15]; C203, oral)	ED50 ([15]; C203, sc, subcutaneous)	MIC [4, 16]	MIC [6, 17]	other results
CCC1OC(=O)CC(O)C(C)C(OC2OC(C)C(O)C(N(C)C)C2O)C(CCOc2ccccc2)CC(C)C(=O)C=CC(C)=CC1COC1OC(C)C(=O)C(OC)C1OC (stereo not shown) [Compound 2, 4"-Oxo-20-DH-20-O-phenyl-desmycosin]	> 128 µg/mL	0.5 µg/mL (≈ 0.59 µM)	4 µg/mL (≈ 4.72 µM)	0.25 µg/mL (≈ 0.295 µM)	0.5 µg/mL (≈ 0.59 µM)	0.5 µg/mL (≈ 0.59 µM)	1 µg/mL (≈ 1.18 µM)	> 128 µg/mL	8 µg/mL (≈ 9.43 µM)	4 µg/mL (≈ 4.72 µM)	0.5 µg/mL (≈ 0.59 µM)	2 µg/mL (≈ 2.36 µM)	> 128 µg/mL	85.6 mg/kg	> 10 mg/kg			MIC [4]: 64 µg/mL (≈ 75.5 µM); MIC [6]: 64 µg/mL (≈ 75.5 µM)
CCC1OC(=O)CC(O)C(C)C(OC2OC(C)C(O)C(N(C)C)C2O)C(CCOc2ccccc2)CC(C)C(=O)C=CC(C)=CC1COC1OC(C)C(OS(C)(=O)=O)C(OC)C1OC (stereo not shown) [Compound 15, 4"-O-Methanesulfonyl-20-DH-20-O-Phenyl-desmycosin]	> 128 µg/mL	2 µg/mL (≈ 2.15 µM)	16 µg/mL (≈ 17.2 µM)	1 µg/mL (≈ 1.08 µM)	2 µg/mL (≈ 2.15 µM)	2 µg/mL (≈ 2.15 µM)	2 µg/mL (≈ 2.15 µM)	> 128 µg/mL	32 µg/mL (≈ 34.5 µM)		2 µg/mL (≈ 2.15 µM)	4 µg/mL (≈ 4.31 µM)	> 128 µg/mL	29.3 mg/kg	> 10 mg/kg	128 µg/mL (≈ 138 µM)	128 µg/mL (≈ 138 µM)	MIC ([11]; agar-dilution, read-out: MIC): 8 µg/mL (≈ 8.62 µM)
CCC1OC(=O)CC(O)C(C)C(OC2OC(C)C(O)C(N(C)C)C2O)C(CCOc2ccccc2)CC(C)C(=O)C=CC(C)=CC1COC1OC(C)C(N=[N+]=[N-])C(OC)C1OC (stereo not shown) [Compound 25, 4"-Azido-4"-deoxy-20-DH-20-O-phenyl-desmycosin]	> 128 µg/mL	4 µg/mL (≈ 4.57 µM)		4 µg/mL (≈ 4.57 µM)	4 µg/mL (≈ 4.57 µM)	4 µg/mL (≈ 4.57 µM)	4 µg/mL (≈ 4.57 µM)	> 128 µg/mL	64 µg/mL (≈ 73.1 µM)	8 µg/mL (≈ 9.14 µM)	4 µg/mL (≈ 4.57 µM)	8 µg/mL (≈ 9.14 µM)	> 128 µg/mL	64 mg/kg	> 10 mg/kg	> 128 µg/mL	> 128 µg/mL	MIC ([3]; agar-dilution, read-out: MIC): 16 µg/mL (≈ 18.3 µM)
CCC1OC(=O)CC(O)C(C)C(OC2OC(C)C(OC(C)=O)C(N(C)C)C2OC(C)=O)C(CCOc2ccccc2)CC(C)C(=O)C=CC(C)=CC1COC1OC(C)C(OS(=O)(=O)C(F)(F)F)C(OC)C1OC (stereo not shown) [Compound 40, 2',4'-Di-O-acetyl-20-DH-20-O-phenyl-4"-O-(trifluoromethanesulfonyl)-desmycosin]	> 128 µg/mL	2 µg/mL (≈ 1.88 µM)		2 µg/mL (≈ 1.88 µM)	2 µg/mL (≈ 1.88 µM)	2 µg/mL (≈ 1.88 µM)	2 µg/mL (≈ 1.88 µM)	> 128 µg/mL		8 µg/mL (≈ 7.5 µM)	2 µg/mL (≈ 1.88 µM)	2 µg/mL (≈ 1.88 µM)	> 128 µg/mL			> 128 µg/mL	> 128 µg/mL	MIC ([3]; agar-dilution, read-out: MIC): > 128 µg/mL; MIC ([10]; agar-dilution, read-out: MIC): > 128 µg/mL
CCC1OC(=O)CC(O)C(C)C(OC2OC(C)C(O)C(N(C)C)C2O)C(CCOc2ccccc2)CC(C)C(=O)C=CC(C)=CC1COC1OC(C)C(N2CCCCC2)C(OC)C1OC (stereo not shown) [Compound 42, 4"-Deoxy-20-DH-20-O-phenyl-4"-(piperidin-1-yl)desmycosin]	> 128 µg/mL	4 µg/mL (≈ 4.36 µM)	16 µg/mL (≈ 17.4 µM)	2 µg/mL (≈ 2.18 µM)	4 µg/mL (≈ 4.36 µM)	4 µg/mL (≈ 4.36 µM)	4 µg/mL (≈ 4.36 µM)	> 128 µg/mL	32 µg/mL (≈ 34.9 µM)	2 µg/mL (≈ 2.18 µM)	2 µg/mL (≈ 2.18 µM)	2 µg/mL (≈ 2.18 µM)	> 128 µg/mL	> 100 mg/kg	> 10 mg/kg	> 128 µg/mL	> 128 µg/mL	
CCC1OC(=O)CC(O)C(C)C(OC2OC(C)C(O)C(N(C)C)C2O)C(CCOc2ccccc2)CC(C)C(=O)C=CC(C)=CC1COC1OC(C)C(OCCOC)C(OC)C1OC (stereo not shown) [Compound 44, 20-DH-4"-(2-Methoxyethoxy)-20-O-phenyl-desmycosin]	> 128 µg/mL	2 µg/mL (≈ 2.2 µM)	8 µg/mL (≈ 8.81 µM)	2 µg/mL (≈ 2.2 µM)	2 µg/mL (≈ 2.2 µM)	2 µg/mL (≈ 2.2 µM)	2 µg/mL (≈ 2.2 µM)	> 128 µg/mL	32 µg/mL (≈ 35.2 µM)	4 µg/mL (≈ 4.4 µM)	2 µg/mL (≈ 2.2 µM)	4 µg/mL (≈ 4.4 µM)	> 128 µg/mL			> 128 µg/mL	> 128 µg/mL	
CCC1OC(=O)CC(O)C(C)C(OC2OC(C)C(O)C(N(C)C)C2O)C(CCOc2ccccc2)CC(C)C(=O)C=CC(C)=CC1COC1OC(C)C(NCc2ccccc2)C(OC)C1OC (stereo not shown) [Compound 47, 4"-Benzylamino-4"-deoxy-20-DH-20-O-phenyl-desmycosin]	> 128 µg/mL	2 µg/mL (≈ 2.13 µM)	8 µg/mL (≈ 8.52 µM)	2 µg/mL (≈ 2.13 µM)	2 µg/mL (≈ 2.13 µM)	2 µg/mL (≈ 2.13 µM)	2 µg/mL (≈ 2.13 µM)	> 128 µg/mL	32 µg/mL (≈ 34.1 µM)	2 µg/mL (≈ 2.13 µM)	2 µg/mL (≈ 2.13 µM)	2 µg/mL (≈ 2.13 µM)	> 128 µg/mL	70.7 mg/kg	> 10 mg/kg	128 µg/mL (≈ 136 µM)	128 µg/mL (≈ 136 µM)	
CCCN(CCC)C1C(C)OC(OCC2C=C(C)C=CC(=O)C(C)CC(CCOc3ccccc3)C(OC3OC(C)C(O)C(N(C)C)C3O)C(C)C(O)CC(=O)OC2CC)C(OC)C1OC (stereo not shown) [Compound 48, 4"-Deoxy-20-DH-20-O-phenyl-4"-[di-(n-propyl)amino]desmycosin]	> 128 µg/mL	16 µg/mL (≈ 17.1 µM)	16 µg/mL (≈ 17.1 µM)	16 µg/mL (≈ 17.1 µM)	16 µg/mL (≈ 17.1 µM)	16 µg/mL (≈ 17.1 µM)	16 µg/mL (≈ 17.1 µM)	> 128 µg/mL	16 µg/mL (≈ 17.1 µM)	4 µg/mL (≈ 4.29 µM)	16 µg/mL (≈ 17.1 µM)	8 µg/mL (≈ 8.57 µM)	> 128 µg/mL			> 128 µg/mL	> 128 µg/mL	
CCC1OC(=O)CC(O)C(C)C(OC2OC(C)C(O)C(N(C)C)C2O)C(CCOc2ccccc2)CC(C)C(=O)C=CC(C)=CC1COC1OC(C)C(OC)C(O)C1OC (stereo not shown) [Compound 50, 4"-O-Methyl-20-DH-20-O-phenyl-lactenocin]	> 128 µg/mL	0.5 µg/mL (≈ 0.588 µM)	16 µg/mL (≈ 18.8 µM)	0.25 µg/mL (≈ 0.294 µM)	0.5 µg/mL (≈ 0.588 µM)	0.5 µg/mL (≈ 0.588 µM)	0.5 µg/mL (≈ 0.588 µM)	> 128 µg/mL	32 µg/mL (≈ 37.6 µM)	8 µg/mL (≈ 9.41 µM)	0.5 µg/mL (≈ 0.588 µM)	4 µg/mL (≈ 4.71 µM)	> 128 µg/mL	75.3 mg/kg	> 10 mg/kg	128 µg/mL (≈ 151 µM)		
CCC1OC(=O)CC(O)C(C)C(OC2OC(C)C(O)C(N(C)C)C2O)C(CCOc2ccccc2)CC(C)C(=O)C=CC(C)=CC1COC1OC(C)CC(=O)C1OC (stereo not shown) [Compound 52, 4"-Deoxy-3"-oxo-20-DH-20-O-phenyl-lactenocin]	> 128 µg/mL	0.5 µg/mL (≈ 0.611 µM)	2 µg/mL (≈ 2.44 µM)	0.25 µg/mL (≈ 0.306 µM)	0.5 µg/mL (≈ 0.611 µM)	0.5 µg/mL (≈ 0.611 µM)	0.5 µg/mL (≈ 0.611 µM)	> 128 µg/mL	2 µg/mL (≈ 2.44 µM)	2 µg/mL (≈ 2.44 µM)	0.5 µg/mL (≈ 0.611 µM)	1 µg/mL (≈ 1.22 µM)	> 128 µg/mL	79.4 mg/kg	10 mg/kg			MIC [4]: 64 µg/mL (≈ 78.2 µM); MIC [6]: 64 µg/mL (≈ 78.2 µM)
CCC1OC(=O)CC(O)C(C)C(OC2OC(C)C(O)C(N(C)C)C2O)C(CCOc2ccccc2)CC(C)C(=O)C=CC(C)=CC1COC1OC(C)C=C(OC)C1OC (stereo not shown) [Compound 54, 3",4"-Anhydro-20-DH-20-O-phenyl-desmycosin]	> 128 µg/mL	0.5 µg/mL (≈ 0.601 µM)	8 µg/mL (≈ 9.61 µM)	0.25 µg/mL (≈ 0.3 µM)	1 µg/mL (≈ 1.2 µM)	1 µg/mL (≈ 1.2 µM)	1 µg/mL (≈ 1.2 µM)	> 128 µg/mL	8 µg/mL (≈ 9.61 µM)	4 µg/mL (≈ 4.81 µM)	1 µg/mL (≈ 1.2 µM)	4 µg/mL (≈ 4.81 µM)	> 128 µg/mL			128 µg/mL (≈ 154 µM)	128 µg/mL (≈ 154 µM)	
